# Experimental data from US12528819B2 (priority 2016, dated 2026).
# Target: T1, α5β2γ2 subtype GABAAR (Homo sapiens, UniProt P18507+P31644)
# T1 construct: expressed in transfected cells
# T1 sequence (P31644 32-462): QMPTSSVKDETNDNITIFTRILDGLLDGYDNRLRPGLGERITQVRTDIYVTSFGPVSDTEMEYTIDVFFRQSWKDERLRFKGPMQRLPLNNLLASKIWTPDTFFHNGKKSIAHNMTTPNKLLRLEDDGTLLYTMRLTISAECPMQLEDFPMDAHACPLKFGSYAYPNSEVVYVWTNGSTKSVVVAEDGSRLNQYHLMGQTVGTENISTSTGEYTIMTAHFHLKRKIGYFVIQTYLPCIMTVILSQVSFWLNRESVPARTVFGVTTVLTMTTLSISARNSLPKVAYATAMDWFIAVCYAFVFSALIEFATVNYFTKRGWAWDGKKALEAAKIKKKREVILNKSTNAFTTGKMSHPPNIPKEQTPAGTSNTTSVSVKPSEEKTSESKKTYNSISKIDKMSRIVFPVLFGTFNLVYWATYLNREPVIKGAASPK
# T1 sequence (P47870 25-512 partner limits assumed): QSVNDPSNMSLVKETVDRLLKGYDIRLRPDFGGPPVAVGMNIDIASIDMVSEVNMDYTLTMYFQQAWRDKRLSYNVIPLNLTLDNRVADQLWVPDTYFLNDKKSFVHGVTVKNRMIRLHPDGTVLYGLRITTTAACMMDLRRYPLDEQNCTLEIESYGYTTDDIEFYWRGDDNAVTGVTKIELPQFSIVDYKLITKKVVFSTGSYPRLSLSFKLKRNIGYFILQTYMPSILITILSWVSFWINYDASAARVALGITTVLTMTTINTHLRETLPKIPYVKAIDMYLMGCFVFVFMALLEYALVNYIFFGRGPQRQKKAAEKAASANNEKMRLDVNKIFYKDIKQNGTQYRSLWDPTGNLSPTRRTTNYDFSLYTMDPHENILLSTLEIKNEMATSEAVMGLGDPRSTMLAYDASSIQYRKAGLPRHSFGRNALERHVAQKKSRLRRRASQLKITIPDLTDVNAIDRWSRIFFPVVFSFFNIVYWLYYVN
# T1 sequence (P18507 40-467 limits assumed): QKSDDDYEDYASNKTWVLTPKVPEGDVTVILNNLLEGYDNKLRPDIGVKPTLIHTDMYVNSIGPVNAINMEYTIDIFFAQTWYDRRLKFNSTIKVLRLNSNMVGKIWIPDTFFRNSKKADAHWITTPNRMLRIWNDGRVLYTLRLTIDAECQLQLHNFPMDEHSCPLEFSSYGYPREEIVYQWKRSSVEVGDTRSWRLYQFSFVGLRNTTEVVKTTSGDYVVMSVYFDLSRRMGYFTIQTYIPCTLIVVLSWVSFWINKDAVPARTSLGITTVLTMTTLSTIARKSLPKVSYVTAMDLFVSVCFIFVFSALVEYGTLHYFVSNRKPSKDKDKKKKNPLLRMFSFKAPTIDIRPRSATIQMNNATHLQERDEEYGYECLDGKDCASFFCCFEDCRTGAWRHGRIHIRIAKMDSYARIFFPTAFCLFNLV
# Assay: Positive allosteric modulator activity: potentiation of EC20 GABA current in oocytes
# Format: cell-based
# Conditions: read-out: GABA α5 Functional Data (potentiation), @ 100 nM, reported as ranges
# Description: (B) Positive Allosteric Modulator Activity of Test Compounds on α5β2γ2 Subtype GABAAR
# On day 1, 1 ng/32 nL of GABAA α5β2γ2 cDNA was injected into one oocyte. Test starts on day 2. The cDNA injected to the oocytes was a mix of alpha, beta and gamma, their ratio is 1:1:10 (by weight) and the total weight of the mixed 3 subunits to be injected in one oocyte was 1 ng in 32 nl volume. The injected oocytes can also be tested on day 3. In such case, the cDNA amount injected to the oocytes should be reduced by 20%.
# Compounds of the present invention were tested using the following procedures.
# • 1). 8 oocytes were placed in 8 chambers of OpusXpress and superfused with Modified Barth's Saline (MBS) at 3 mL/min. Glass electrodes back-filled with 3M KCl (0.5-3 megaohms) were used.
# Control test (Diazepam or methyl 3,5-diphenylpyridazine-4-carboxylate) • 1). New oocytes was used to run new test. • 2). […] Oocytes were washed with MBS for 5-10 min. • 4). […] Itest was divided by IGABA to obtain potentiation (%). Test Compounds at Multiple Doses • 1). Repeat the above steps 1), 2) and 3) in the control test. • 2). […] Divide Itest by IGABA to obtain potentiation (%). • 3). Discard all tested oocytes, new oocytes were used and the above steps 1) and 2) were repeated to test second concentration of the same compound. Each oocyte was used for only one concentration test for a single test compound. The steps were repeated for other test compounds.
row,Structure (SMILES),activation at 0.1 µM
1,CC(C)c1nc(-c2ncn3c2Cn2c(COc4cccc(F)c4)nnc2-c2cc(F)ccc2-3)no1 [Compound 188],20 to 50%
2,CC(C)c1nc(-c2ncn3c2Cn2c(COc4ccc(F)cc4)nnc2-c2cc(F)ccc2-3)no1 [Compound 189],20 to 50%
3,Cc1cccc(C)c1OCc1nnc2n1Cc1c(-c3noc(C(C)C)n3)ncn1-c1ccc(F)cc1-2 [Compound 190],5 to 20%
4,COc1ccc2c(c1)-c1nnc(COc3ccc(F)cc3)n1Cc1c(C#N)ncn1-2 [Compound 191],20 to 50%
5,CCc1nc(-c2ncn3c2Cc2c(Cc4ccccc4)nnn2-c2cc(OC)ccc2-3)no1 [Compound 194],> 50%
6,CCc1nc(-c2ncn3c2Cc2c(Cc4ccc(F)cc4)nnn2-c2cc(OC)ccc2-3)no1 [Compound 195],20 to 50%
7,COc1ccc2c(c1)-c1nnc(COc3cccc(F)c3)n1Cc1c(C#N)ncn1-2 [Compound 196],20 to 50%
8,COCc1nnc2n1Cc1c(-c3nc(C)no3)ncn1-c1ccc(Cl)cc1-2 [Compound 198],20 to 50%
9,FC(F)=Cc1ncn2c1Cn1c(COc3ccccc3)nnc1-c1cc(Cl)ccc1-2 [Compound 199],20 to 50%
10,FC(F)c1ncn2c1Cn1c(COc3ccccc3)nnc1-c1cc(Cl)ccc1-2 [Compound 200],5 to 20%
11,Clc1ccc2c(c1)-c1nnc(COc3ccccc3)n1Cc1c(Br)ncn1-2 [Compound 202],20 to 50%
12,COc1ccc2c(c1)-c1nnc(COCc3cccnc3)n1Cc1c(-c3noc(C(C)C)n3)ncn1-2 [Compound 203],20 to 50%
13,C#Cc1ncn2c1Cn1c(COc3ccccc3)nnc1-c1cc(Cl)ccc1-2 [Compound 205],20 to 50%
14,COCc1nnc2n1Cc1c(-c3nc(C(C)C)no3)ncn1-c1ccc(Cl)cc1-2 [Compound 206],5 to 20%
15,COc1ccc2c(c1)-n1nnc(Cc3ccccc3)c1Cc1c(C#N)ncn1-2 [Compound 207],20 to 50%
16,COc1ccc2c(c1)-n1nnc(Cc3cccnc3)c1Cc1c(C#N)ncn1-2 [Compound 210],20 to 50%
17,COc1ccc2c(c1)-n1nnc(C)c1Cc1c(Br)ncn1-2 [Compound 211],5 to 20%
18,COc1ccc2c(c1)-n1nnc(Cc3ccccc3)c1Cc1c(Br)ncn1-2 [Compound 212],20 to 50%
19,COc1ccc2c(c1)-n1nnc(Cc3ccc(F)cc3)c1Cc1c(Br)ncn1-2 [Compound 213],20 to 50%
20,CCOCc1ncn2c1Cn1c(COC)nnc1-c1cc(Cl)ccc1-2 [Compound 215],5 to 20%
21,COCc1nnc2n1Cc1c(Br)ncn1-c1ccc(Cl)cc1-2 [Compound 217],5 to 20%
22,COc1ccc2c(c1)-n1nnc(COc3ccc(F)cc3)c1Cc1c(C#N)ncn1-2 [Compound 222],20 to 50%
23,COc1ccc2c(c1)-n1nnc(COc3ccccc3F)c1Cc1c(C#N)ncn1-2 [Compound 223],5 to 20%
24,COc1ccc2c(c1)-n1nnc(COc3ccccc3)c1Cc1c(C#N)ncn1-2 [Compound 224],20 to 50%
25,COc1ccc2c(c1)-n1nnc(COc3cccc(Br)c3)c1Cc1c(C#N)ncn1-2 [Compound 225],20 to 50%
26,N#Cc1ncn2c1Cc1c(COc3ccccc3)nnn1-c1cc(Cl)ccc1-2 [Compound 226],20 to 50%
27,N#Cc1ncn2c1Cc1c(COc3cccc(F)c3)nnn1-c1cc(Cl)ccc1-2 [Compound 227],5 to 20%

row,Structure (SMILES),activation at 0.1 µM
1,Fc1ccc2c(c1)-n1cnc(Br)c1Cc1c(Cc3ccccc3)nnn1-2 [Compound 229],5 to 20%
2,COc1ccc2c(c1)-c1nnc(COc3ccccc3)n1Cc1c(Br)ncn1-2 [Compound 232],5 to 20%
3,COCc1nnc2n1Cc1c(-c3cc(C)no3)ncn1-c1ccc(Cl)cc1-2 [Compound 233],5 to 20%
4,C#Cc1ncn2c1Cn1c(COc3ccccc3)nnc1-c1cc(OC)ccc1-2 [Compound 236],5 to 20%
5,COCc1nnc2n1Cc1c(C3=NCCO3)ncn1-c1ccc(Cl)cc1-2 [Compound 238],20 to 50%
6,C#Cc1ncn2c1Cn1c(COc3cccnc3)nnc1-c1cc(OC)ccc1-2 [Compound 241],5 to 20%
7,COCc1nnc2n1Cc1c(C3=NC(c4ccccc4)CO3)ncn1-c1ccc(Cl)cc1-2 (stereo not drawn) [Compound 242],5 to 20%
8,COCc1nnc2n1Cc1c(C3=NC(C)CO3)ncn1-c1ccc(Cl)cc1-2 (stereo not drawn) [Compound 243],20 to 50%
9,COCc1nnc2n1Cc1c(-c3nc(C)co3)ncn1-c1ccc(Cl)cc1-2 [Compound 244],5 to 20%
10,COCc1nnc2n1Cc1c(-c3nc(-c4ccccc4)co3)ncn1-c1ccc(Cl)cc1-2 [Compound 245],5 to 20%
11,COCc1nnc2n1Cc1c(-c3ncco3)ncn1-c1ccc(Cl)cc1-2 [Compound 249],20 to 50%
12,COCc1nnc2n1Cc1c(C3=N[C@@H](c4ccccc4)CO3)ncn1-c1ccc(Cl)cc1-2 [Compound 264],20 to 50%
13,CC(C)OCc1nnc2n1Cc1c(C3=N[C@H](c4ccccc4)CO3)ncn1-c1ccc(Cl)cc1-2 [Compound 268],5 to 20%
14,CCOCc1nnc2n1Cc1c(C3=N[C@H](c4ccccc4)CO3)ncn1-c1ccc(Cl)cc1-2 [Compound 271],> 50%
15,COCc1nnc2n1Cc1c(C#Cc3ccccc3)ncn1-c1ccc(Cl)cc1-2 [Compound 285],5 to 20%
16,COc1ccc2c(c1)-n1nncc1Cc1c(C3=N[C@H](c4ccccc4)CO3)ncn1-2 [Compound 290],20 to 50%
17,COCc1nnc2n1Cc1c(C#Cc3ccccc3C)ncn1-c1ccc(Cl)cc1-2 [Compound 293],20 to 50%
18,C#Cc1ccc2c(c1)-c1nnc(COC)n1Cc1c(C3=N[C@@H](c4ccccc4)CO3)ncn1-2 [Compound 301],5 to 20%
19,C#Cc1ccc2c(c1)-c1nnc(COC)n1Cc1c(-c3nc(-c4ccccc4)co3)ncn1-2 [Compound 302],5 to 20%
20,FC(F)(F)COCc1nnc2n1Cc1c(C3=N[C@@H](c4ccccc4)CO3)ncn1-c1ccc(Cl)cc1-2 [Compound 304],5 to 20%
21,CCOC(=O)c1ncn2c1Cn1c(COCC(F)(F)F)nnc1-c1cc(Cl)ccc1-2 [Compound 308],5 to 20%
22,Cc1ccccc1C#Cc1ncn2c1Cn1c(COC(C)C)nnc1-c1cc(Cl)ccc1-2 [Compound 310],5 to 20%
23,CCOCc1nnc2n1Cc1c(C#Cc3ccccc3C)ncn1-c1ccc(Cl)cc1-2 [Compound 311],5 to 20%
24,FC(F)(F)COCc1nnc2n1Cc1c(-c3nc(-c4ccccc4)co3)ncn1-c1ccc(Cl)cc1-2 [Compound 313],20 to 50%
25,COCc1nnc2n1Cc1c(C3=N[C@@H](c4ccccc4F)CO3)ncn1-c1ccc(Cl)cc1-2 [Compound 319],20 to 50%
26,COCc1nnc2n1Cc1c(C3=N[C@@H](c4ccc(F)cc4)CO3)ncn1-c1ccc(Cl)cc1-2 [Compound 320],20 to 50%
27,COCc1nnc2n1Cc1c(-c3nc(-c4ccccc4F)co3)ncn1-c1ccc(Cl)cc1-2 [Compound 323],20 to 50%
